Assay results as given in US20060062846A1, “Alfuzosin tablets and synthesis” (Cimex Pharma AG, priority 2004, published 2006).
Structures can show the parent of a compound that is named as a salt.

Columns and labels:
[1] = solubility in water; assay type: physicochemical
[2] = immediate-release tablet, cited from earlier work

solubility in water [1]: freely soluble in water
Structure (SMILES): COc1cc2nc(N(C)CCCNC(=O)C3CCCO3)nc(N)c2cc1OC (racemic) [alfuzosin hydrochloride, (R,S)-N-(3-(4-amino-6,7-dimethoxy-2-quinazolinyl)methylamino) propyl) tetrahydro-2-furancarboxamide hydrochloride]
Peak plasma concentrations reached after administration (time) [2]: ≤ 1 h | inter-individual fluctuations in plasma concentrations [2]: sevenfold | Terminal elimination half-life ([2]; range printed (1-10 h)): approximately 5 h | Bioavailability ([2]; range printed (45-90%)): 64%
